Measurements from patent US4119722A, “Method for control of fungi using 4-halo-5-aryl-1,2,3,-dithiazoles” (Chevron Research Company, priority 1977, dated 1978).

Key:
Phytophthora infestans = assay: whole plant or invertebrate; format: in vivo; details: in Solanum lycopersicum, 168 h, read-out: Tomato Late Blight, % Control
Septoria apii = format: in vivo; details: sprayed celery plants; concentration not given
[1] = system: Watergrass (Echinochloa Crusgalli); assay: Post-emergent herbicidal test; format: in vivo; details: Echinochloa crus-galli, post-emergence, 504 h, 33 mcg/cm^2, 3 weeks, scale 0 (no phytotoxicity) to 100 (complete kill), read-out: Herbicidal Effectiveness (W)
Method: (§1) Post-emergent herbicidal tests with representative compounds of this invention were made using the following method.
(§2) An acetone solution of the test compound was prepared by mixing 750 mg of the compound, 220 mg of a nonionic surfactant and 25 ml of acetone. This solution was added to approximately 125 ml of water containing 156 mg of surfactant.
(§3) This test solution was uniformly sprayed on 2 similar pots of 24-day-old plants (approximately 15 to 25 plants per pot) at a dose of 33 mcg/cm^2. After the plants had dried, they were placed in a greenhouse and then watered intermittently at their bases, as needed. The plants were observed periodically for phytotoxic effects and physiological and morphological responses to the treatment. After 3 weeks, the herbicidal effectiveness of the compound was rated based on these observations. A 0-to-100 scale was used, 0 representing no phytotoxicity and 100 representing complete kill.

[2] = system: Lambsquarter (Chenopodium album); assay: Post-emergent herbicidal test; format: in vivo; details: post-emergence, 504 h, 33 mcg/cm^2, 3 weeks, scale 0 (no phytotoxicity) to 100 (complete kill), read-out: Herbicidal Effectiveness (P)
Method: as §1, §2, §3

[3] = system: Mustard (Brassica arvensis); assay: Post-emergent herbicidal test; format: in vivo; details: post-emergence, 504 h, 33 mcg/cm^2, 3 weeks, scale 0 (no phytotoxicity) to 100 (complete kill), read-out: Herbicidal Effectiveness (L)
Method: as §1, §2, §3

[4] = system: Crabgrass (Digitaria sanguinalis); assay: Post-emergent herbicidal test; format: in vivo; details: post-emergence, 504 h, 33 mcg/cm^2, 3 weeks, scale 0 (no phytotoxicity) to 100 (complete kill), read-out: Herbicidal Effectiveness (C)
Method: as §1, §2, §3

Wild Oats (Avena fatua) = assay: Post-emergent herbicidal test; format: in vivo; details: post-emergence, 504 h, 33 mcg/cm^2, 3 weeks, scale 0 (no phytotoxicity) to 100 (complete kill), read-out: Herbicidal Effectiveness (O)
Method: as §1, §2, §3

[5] = system: Pigweed (Amaranthus retroflexus); assay: Post-emergent herbicidal test; format: in vivo; details: post-emergence, 504 h, 33 mcg/cm^2, 3 weeks, scale 0 (no phytotoxicity) to 100 (complete kill), read-out: Herbicidal Effectiveness
Method: as §1, §2, §3

Fusarium moniloforma = assay: Mycelia Inhibition; format: cell-based; details: 25° C., 24 hours
Method: (§4) The compounds of the present invention were evaluated for fungicidal effectiveness by means of a mycelial inhibition test. This test is designed to measure the fungitoxic acitvity of fungicidal chemicals in terms of their degree of inhibition of mycelium growth. Each compound to be tested was dissolved in acetone to 500 ppm concentration. Paper strips were innoculated with the particular mycelium growth by covering the paper with a potato dextrose broth culture of mycelial suspension. The innoculated papers were then placed on potato dextrose agar plates and sprayed by means of a micro sprayer with the fungicidal solution. The treated paper strips were incubated at 25° C. and data is taken after 24 hours. Fungicidal activities are measured by a zone of inhibited mycelial growth from the center of the paper strip. The effectiveness of the compounds tested for fungicidal activity is reported in Table VI in terms of the microgram/cm^2 for 99% control of the fungus.

Rhizoctonia solani = assay: Mycelia Inhibition; format: cell-based; details: 25° C., 24 hours
Method: as §4

Aspergillus niger = assay: Mycelia Inhibition; format: cell-based; details: 25° C., 24 hours
Method: as §4

Botrytis cinerea = assay: Mycelia Inhibition; format: cell-based; details: 25° C., 24 hours
Method: as §4

[6] = system: two spotted-mites (Tetramuchus urticae); assay: Mite control test, adult mites; format: in vivo; details: 40-ppm leaf dip, adult mortality one day after treatment; 1440 min
Method: (§5) Compounds of the invention were tested for the control mites and mite eggs by the following procedure. Pinto bean leaves were invested with two spotted-mites (Tetramuchus urticae). The mites were then allowed to lay eggs on the leaves. After 48 hours, the leaves were dipped into a water/acetone solution containing a small amount of a non-ionic surfactant and 40-ppm of the test compound. The treated leaves were then maintained at 85° F. One day after treatment, the mortality of adult mites was determined, and 7 days after treatment, the egg mortality (non-hatching eggs) was determined.

[7] = system: mite eggs (Tetramuchus urticae); assay: Mite control test, mite eggs; format: in vivo; details: 40-ppm leaf dip, egg mortality (non-hatching eggs) 7 days after treatment
Method: as §5

Compound | pest or weed control at 250 µg/mL (Phytophthora infestans) [%] | Celery Late Blight, % Control (Septoria apii) [%] | pest or weed control at 33 µg/cm2 [1] [%] | pest or weed control at 33 µg/cm2 [2] [%] | pest or weed control at 33 µg/cm2 [3] [%] | pest or weed control at 33 µg/cm2 [4] [%] | pest or weed control at 33 µg/cm2 (Wild Oats (Avena fatua)) [%] | pest or weed control at 33 µg/cm2 [5] [%] | Mycelia Inhibition, for 99% control (F) (Fusarium moniloforma) [micrograms/cm^2] | Mycelia Inhibition, for 99% control (R) (Rhizoctonia solani) [micrograms/cm^2] | Mycelia Inhibition, for 99% control (A) (Aspergillus niger) [micrograms/cm^2] | Mycelia Inhibition, for 99% control (B) (Botrytis cinerea) [micrograms/cm^2] | Mite Control, % [6] [%] | Mite Eggs Control, % [7] [%]
O=[N+]([O-])c1ccc(Oc2cccc(N=c3ssnc3Cl)c2)c(C(F)(F)F)c1 [Compound 17] | 62 | 56 | – | – | – | – | – | – | – | – | – | – | – | –
Cc1ccc(N=c2ssnc2Cl)cc1 [Compound 25] | – | – | 55 | 45 | 100 | 35 | 30 | 90 | > 1.7 | 0.92 | 1.5 | 0.76 | – | –
Clc1cccc(N=c2ssnc2Cl)c1 [Compound 15] | 68 | – | 45 | 80 | 98 | 10 | 30 | 85 | > 1.7 | 0.98 | > 1.7 | > 1.7 | – | –
O=[N+]([O-])c1ccc(Oc2ccc(N=c3ssnc3Cl)cc2)cc1 [Compound 19] | 51 | 62 | – | – | – | – | – | – | > 1.7 | 0.88 | > 1.7 | – | 0 | 78
Clc1nssc1=Nc1ccc2ccccc2c1 [Compound 16] | 73 | – | 90 | 70 | 100 | 20 | 0 | 85 | – | – | – | – | – | –
Clc1nssc1=Nc1ccccc1 [Compound 1, 4-chloro-5-phenylimino-1,2,3-dithiazole] | – | – | 10 | 70 | 80 | 20 | 0 | 85 | > 1.7 | > 1.7 | > 1.7 | 0.33 | – | –
Oc1c(Cl)cc(N=c2ssnc2Cl)cc1Cl [Compound 26] | – | – | – | – | – | – | – | – | > 1.7 | 1.3 | > 1.7 | > 1.7 | – | –
N#Cc1ccccc1N=c1ssnc1Cl [Compound 29] | – | 44 | – | – | – | – | – | – | – | – | – | – | – | –
Clc1ccc(N=c2ssnc2Cl)cc1Cl [Compound 5, 4-chloro-5-(3,4-dichlorophenylimino)-1,2,3-dithiazole] | – | – | 55 | 100 | 100 | 30 | 35 | 100 | > 1.7 | > 1.7 | 1.1 | – | 99 | 100
Cc1cccc(C)c1N=c1ssnc1Cl [Compound 10] | – | – | 0 | 30 | 75 | 0 | 0 | 60 | – | – | – | – | – | –
Clc1ccccc1N=c1ssnc1Cl [Compound 14] | – | – | 40 | 100 | 100 | 30 | 0 | 93 | – | – | – | – | 70 | 0
O=[N+]([O-])c1ccc(Oc2ccccc2N=c2ssnc2Cl)cc1 [Compound 20] | 80 | 62 | – | – | – | – | – | – | > 1.7 | 1.3 | > 1.7 | – | – | –
Cc1ccccc1N=c1ssnc1Cl [Compound 7] | – | – | 0 | 70 | 60 | 0 | 0 | 70 | > 1.7 | > 1.7 | 0.98 | > 1.7 | – | –
Cc1cc(C)c(N=c2ssnc2Cl)c(C)c1 [Compound 11] | – | – | – | – | – | – | – | – | > 1.7 | 0.98 | > 1.7 | > 1.7 | – | –
Clc1nssc1=Nc1cccc(Br)c1 [Compound 12] | – | – | 30 | 55 | 100 | 30 | 30 | 85 | > 1.7 | 1.4 | > 1.7 | > 1.7 | – | 78
Fc1ccc(N=c2ssnc2Cl)cc1 [Compound 24] | – | – | 60 | 70 | 100 | 60 | 40 | 70 | – | – | – | – | – | –
N#Cc1cc(C(F)(F)F)ccc1Oc1cccc(N=c2ssnc2Cl)c1 [Compound 30] | – | 80 | – | – | – | – | – | – | – | – | – | – | – | –
O=[N+]([O-])c1cccc(N=c2ssnc2Cl)c1 [Compound 8] | 44 | – | 0 | 40 | 35 | 0 | 0 | 30 | > 1.7 | > 1.7 | > 1.7 | 1.3 | – | –
Clc1ccc(N=c2ssnc2Cl)cc1 [Compound 2] | – | – | 85 | 95 | 95 | 20 | 15 | 100 | 1.5 | 0.33 | 0.85 | – | – | –
